Assay results as given in US20250353864A1, “INDAZOLE CONTAINING MACROCYCLES AND THEIR USE” (BLOSSOMHILL THERAPEUTICS, INC., priority 2022, published 2025).
Read-outs that look alike come from different tables or passages of the source. Each block holds one compound with its values, some of them ahead of it.

How the values were obtained:
[1] = cc_pd bond
[2] = from C=Cc1nn(C2CCCCO2)c2ccc(-c3cnn(C)c3O[C@H](CC)CN(C)Cc3c(I)c(OCC)nn3CCO[Si](C)(C)C(C)(C)C)cc12; cc_pd bond; 15-membered ring; Pd(OAc)2/TBAC/NaHCO3; DMF; 97.8 mM; 80.0 °C; 1.0 h
[3] = cc_pd bond; 15-membered ring; Pd(dppf)Cl2/Cs2CO3; 1,4-dioxane/H2O 5:1; 127.0 mM; 90.0 °C
CLK1 = CLK1 (Homo sapiens (Human), UniProt P49759); experiment: Inhibition of CLK1 kinase activity evaluated at Nanosyn (ADP-Glo); format: biochemical; conditions: ADP-Glo luminescence
Sequence of CLK1 (P49759 whole entry): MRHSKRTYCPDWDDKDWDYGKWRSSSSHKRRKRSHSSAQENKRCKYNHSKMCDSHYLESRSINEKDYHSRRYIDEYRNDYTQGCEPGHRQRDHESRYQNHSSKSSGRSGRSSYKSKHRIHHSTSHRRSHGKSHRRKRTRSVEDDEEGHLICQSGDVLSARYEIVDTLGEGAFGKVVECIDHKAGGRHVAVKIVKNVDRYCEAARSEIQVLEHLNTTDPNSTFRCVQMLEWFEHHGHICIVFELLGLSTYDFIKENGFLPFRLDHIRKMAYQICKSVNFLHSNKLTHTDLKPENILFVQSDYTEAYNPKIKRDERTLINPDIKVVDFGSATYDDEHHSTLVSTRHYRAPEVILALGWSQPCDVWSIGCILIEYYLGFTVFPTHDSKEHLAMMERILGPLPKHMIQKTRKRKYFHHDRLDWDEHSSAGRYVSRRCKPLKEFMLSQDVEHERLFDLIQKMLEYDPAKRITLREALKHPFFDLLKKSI
Outline: (§1)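 Kinase and substrate in pH 7.5 HEPES buffer (5 mM MgCl2, 0.01% Triton X-100, 0.1% BSA) with compound at 1% DMSO; reaction started with ATP, incubated for an assay-specific time. ADP formed detected by ADP-Glo luminescence; %-inhibition versus DMSO and no-enzyme controls.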

EGFR WT = EGFR WT (Homo sapiens (Human), UniProt P00533); experiment: HotSpot radiometric kinase assay (Reaction Biology), EGFR WT; format: biochemical; conditions: 10 μM ATP
Sequence of EGFR WT (P00533 25-1210): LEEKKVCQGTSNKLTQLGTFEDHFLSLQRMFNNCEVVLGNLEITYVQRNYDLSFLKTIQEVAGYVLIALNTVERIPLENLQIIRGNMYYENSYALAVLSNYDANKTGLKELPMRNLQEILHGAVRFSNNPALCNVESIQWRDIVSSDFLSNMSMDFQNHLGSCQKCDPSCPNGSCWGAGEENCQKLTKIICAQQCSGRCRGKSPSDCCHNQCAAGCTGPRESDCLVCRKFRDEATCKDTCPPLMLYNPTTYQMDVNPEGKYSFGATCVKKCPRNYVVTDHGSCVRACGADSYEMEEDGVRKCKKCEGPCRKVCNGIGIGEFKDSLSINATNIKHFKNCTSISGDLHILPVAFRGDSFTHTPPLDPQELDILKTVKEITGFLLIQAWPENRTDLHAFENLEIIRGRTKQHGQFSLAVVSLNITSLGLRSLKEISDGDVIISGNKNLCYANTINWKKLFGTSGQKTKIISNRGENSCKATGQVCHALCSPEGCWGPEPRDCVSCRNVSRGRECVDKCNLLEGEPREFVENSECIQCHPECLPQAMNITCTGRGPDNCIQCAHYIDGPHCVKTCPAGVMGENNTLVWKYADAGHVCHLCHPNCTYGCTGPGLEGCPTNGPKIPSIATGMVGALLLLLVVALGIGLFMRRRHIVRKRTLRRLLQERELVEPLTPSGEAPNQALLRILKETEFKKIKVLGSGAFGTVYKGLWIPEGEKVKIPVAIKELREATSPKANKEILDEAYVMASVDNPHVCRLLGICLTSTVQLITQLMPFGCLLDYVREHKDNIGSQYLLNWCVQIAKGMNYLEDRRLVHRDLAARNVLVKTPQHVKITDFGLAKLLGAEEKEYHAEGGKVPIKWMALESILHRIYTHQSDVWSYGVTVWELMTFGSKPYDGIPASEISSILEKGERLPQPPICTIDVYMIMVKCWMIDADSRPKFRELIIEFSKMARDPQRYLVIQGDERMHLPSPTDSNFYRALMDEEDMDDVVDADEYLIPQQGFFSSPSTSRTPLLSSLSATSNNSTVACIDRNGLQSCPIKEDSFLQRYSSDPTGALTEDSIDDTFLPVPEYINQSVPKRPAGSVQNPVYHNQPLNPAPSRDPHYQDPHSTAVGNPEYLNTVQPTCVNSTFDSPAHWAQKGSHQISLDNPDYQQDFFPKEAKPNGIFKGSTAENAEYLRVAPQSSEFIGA
Outline: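 10 μM ATP (33P-labelled, final); 120 min RT; P81 filter capture, 0.75% phosphoric acid washes. Cpd preincubated ~20 min with enzyme/substrate, 20 mM Hepes pH 7.5, 10 mM MgCl2, 1% DMSO. IC50 by curve fit.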

EGFR L858R mutant = EGFR L858R mutant (Homo sapiens (Human), UniProt P00533, L858R); experiment: HotSpot radiometric kinase assay, EGFR L858R mutant; format: biochemical; conditions: 10 μM ATP
Outline: (§2)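 Compounds were preincubated ~20 min with kinase/substrate in pH 7.5 Hepes buffer (MgCl2, EGTA, Brij35, BSA, Na3VO4, DTT, 1% DMSO), then ATP plus 33P-ATP was added to 10 μM final. After 120 min at room temperature, reactions were spotted on P81 filters and washed; IC50 values came from curve fits.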

EGFR Δ746-750 mutant = EGFR Δ746-750 mutant (Homo sapiens (Human), UniProt P00533, DEL746-750); experiment: HotSpot radiometric kinase assay, EGFR Δ746-750 mutant; format: biochemical; conditions: 10 μM ATP
Sequence of EGFR Δ746-750 mutant (P00533 other isoform, or with tags, fused parts or gaps del 1-668/del 746-750 limits assumed): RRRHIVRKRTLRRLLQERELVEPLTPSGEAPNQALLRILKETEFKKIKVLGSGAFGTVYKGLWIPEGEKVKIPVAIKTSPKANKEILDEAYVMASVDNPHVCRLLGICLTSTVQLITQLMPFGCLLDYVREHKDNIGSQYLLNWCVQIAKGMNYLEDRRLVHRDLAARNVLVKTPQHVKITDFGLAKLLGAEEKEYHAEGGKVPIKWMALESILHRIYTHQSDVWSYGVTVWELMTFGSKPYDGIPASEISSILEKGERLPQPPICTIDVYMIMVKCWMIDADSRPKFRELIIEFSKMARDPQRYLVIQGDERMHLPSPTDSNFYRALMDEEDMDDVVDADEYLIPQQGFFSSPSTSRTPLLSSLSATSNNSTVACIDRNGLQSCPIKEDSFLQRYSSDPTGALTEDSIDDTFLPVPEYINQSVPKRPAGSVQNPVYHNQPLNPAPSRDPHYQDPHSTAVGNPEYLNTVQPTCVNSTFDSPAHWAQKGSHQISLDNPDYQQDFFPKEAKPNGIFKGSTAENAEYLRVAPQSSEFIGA
Outline: as §2

CLK3 = CLK3 (Homo sapiens (Human), UniProt P49761); experiment: Inhibition of CLK3 kinase activity evaluated at Nanosyn (ADP-Glo); format: biochemical; conditions: ADP-Glo luminescence
Sequence of CLK3 (P49761 whole entry): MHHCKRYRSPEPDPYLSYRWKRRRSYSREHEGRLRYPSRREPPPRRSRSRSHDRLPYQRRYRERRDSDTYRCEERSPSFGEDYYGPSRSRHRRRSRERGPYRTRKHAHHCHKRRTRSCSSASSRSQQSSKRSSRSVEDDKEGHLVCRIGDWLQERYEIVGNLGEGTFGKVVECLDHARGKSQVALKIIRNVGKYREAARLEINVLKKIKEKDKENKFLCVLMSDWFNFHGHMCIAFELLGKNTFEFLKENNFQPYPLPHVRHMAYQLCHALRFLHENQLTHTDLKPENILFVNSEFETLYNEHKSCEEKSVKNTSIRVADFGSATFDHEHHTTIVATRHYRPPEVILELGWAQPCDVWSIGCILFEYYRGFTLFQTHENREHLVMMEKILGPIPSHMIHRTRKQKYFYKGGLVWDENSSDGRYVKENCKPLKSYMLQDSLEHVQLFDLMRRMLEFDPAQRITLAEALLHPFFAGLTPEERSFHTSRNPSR
Outline: as §1

EGFR L858R/T790M mutant = EGFR L858R/T790M mutant (Homo sapiens (Human), UniProt P00533, L858R/T790M); experiment: HotSpot radiometric kinase assay, EGFR L858R/T790M mutant; format: biochemical; conditions: 10 μM ATP
Sequence of EGFR L858R/T790M mutant (P00533 25-1210 T790M/L858R): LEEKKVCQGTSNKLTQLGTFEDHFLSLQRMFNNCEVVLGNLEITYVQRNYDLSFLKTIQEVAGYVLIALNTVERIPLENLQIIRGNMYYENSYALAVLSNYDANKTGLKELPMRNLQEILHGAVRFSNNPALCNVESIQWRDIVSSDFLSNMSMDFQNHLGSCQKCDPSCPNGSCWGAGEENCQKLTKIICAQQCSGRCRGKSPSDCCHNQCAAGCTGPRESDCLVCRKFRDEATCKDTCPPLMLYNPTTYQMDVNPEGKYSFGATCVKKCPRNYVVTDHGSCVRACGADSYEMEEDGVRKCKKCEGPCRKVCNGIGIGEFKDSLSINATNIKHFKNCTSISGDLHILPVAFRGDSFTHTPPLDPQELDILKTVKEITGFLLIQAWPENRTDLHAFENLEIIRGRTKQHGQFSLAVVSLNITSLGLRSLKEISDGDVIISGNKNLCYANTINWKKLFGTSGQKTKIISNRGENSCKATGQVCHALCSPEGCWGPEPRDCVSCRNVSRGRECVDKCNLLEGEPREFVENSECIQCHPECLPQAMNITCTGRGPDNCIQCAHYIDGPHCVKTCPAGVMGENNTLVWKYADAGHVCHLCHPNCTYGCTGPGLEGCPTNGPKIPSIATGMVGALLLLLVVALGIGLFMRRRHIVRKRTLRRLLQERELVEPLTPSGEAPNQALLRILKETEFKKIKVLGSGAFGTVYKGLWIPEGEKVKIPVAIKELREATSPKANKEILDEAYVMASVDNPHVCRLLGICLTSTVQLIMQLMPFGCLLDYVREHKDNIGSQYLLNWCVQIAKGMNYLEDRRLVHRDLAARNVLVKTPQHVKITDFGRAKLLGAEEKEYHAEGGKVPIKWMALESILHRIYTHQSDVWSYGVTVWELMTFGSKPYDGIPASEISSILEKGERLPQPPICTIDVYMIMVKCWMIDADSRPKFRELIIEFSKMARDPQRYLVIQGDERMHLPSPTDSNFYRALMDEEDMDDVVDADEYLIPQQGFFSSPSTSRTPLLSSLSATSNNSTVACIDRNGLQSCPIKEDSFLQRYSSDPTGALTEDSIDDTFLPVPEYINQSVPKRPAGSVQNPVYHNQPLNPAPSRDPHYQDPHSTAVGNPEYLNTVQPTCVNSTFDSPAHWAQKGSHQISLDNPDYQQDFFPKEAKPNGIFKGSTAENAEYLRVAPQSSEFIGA
Outline: as §2

EGFR (D770_N771insNPG) = EGFR (D770_N771insNPG) (Homo sapiens (Human), UniProt P00533, INS770NPG); experiment: HotSpot radiometric kinase assay, EGFR (D770_N771insNPG); format: biochemical; conditions: 10 μM ATP, read-out: EGFR (Δ770_N771insNPG) IC50
Sequence of EGFR (D770_N771insNPG) (P00533 other isoform, or with tags, fused parts or gaps del 1-668/ins NPG behind 770 limits assumed): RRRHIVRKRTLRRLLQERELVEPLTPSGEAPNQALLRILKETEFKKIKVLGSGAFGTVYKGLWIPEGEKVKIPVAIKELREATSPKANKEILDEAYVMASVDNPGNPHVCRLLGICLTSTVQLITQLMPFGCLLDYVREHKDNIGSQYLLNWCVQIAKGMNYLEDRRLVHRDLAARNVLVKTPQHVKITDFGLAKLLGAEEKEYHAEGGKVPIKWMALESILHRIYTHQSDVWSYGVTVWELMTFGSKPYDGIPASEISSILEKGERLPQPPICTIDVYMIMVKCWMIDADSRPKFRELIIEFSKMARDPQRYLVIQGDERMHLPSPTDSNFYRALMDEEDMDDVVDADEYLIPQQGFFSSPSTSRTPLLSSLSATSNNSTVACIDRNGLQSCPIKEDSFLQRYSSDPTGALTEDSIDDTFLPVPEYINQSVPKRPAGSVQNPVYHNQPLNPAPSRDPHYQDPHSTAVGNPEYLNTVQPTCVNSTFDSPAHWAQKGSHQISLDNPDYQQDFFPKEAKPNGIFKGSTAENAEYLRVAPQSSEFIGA
Outline: as §2

ALK = ALK (Homo sapiens (Human), UniProt Q9UM73); experiment: HotSpot radiometric kinase assay, inhibition of ALK kinase activity; format: biochemical; conditions: 10 μM ATP
Outline: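 Radiometric filter-binding assay in which kinase and substrate in pH 7.5 Hepes buffer (1% DMSO) were preincubated with compound ~20 min before 10 μM ATP with 33P-ATP was added. Reactions ran 120 min at room temperature, were spotted on P81 paper and washed in phosphoric acid, and IC50 came from curve fits.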

[4] = molecular target: EGFR L858R/T790M/C797S mutant (Homo sapiens (Human), UniProt P00533, C797S/L858R/T790M); experiment: HotSpot radiometric kinase assay, EGFR L858R/T790M/C797S mutant; format: biochemical; conditions: 10 μM ATP
Outline: as §2

[5] = molecular target: EGFR Δ746-750/C797S mutant (Homo sapiens (Human), UniProt P00533, C797S/DEL746-750); experiment: HotSpot radiometric kinase assay, EGFR Δ746-750/C797S mutant; format: biochemical; conditions: 10 μM ATP
Sequence of EGFR Δ746-750/C797S mutant (P00533 other isoform, or with tags, fused parts or gaps C797S/del 1-668/del 746-750 limits assumed): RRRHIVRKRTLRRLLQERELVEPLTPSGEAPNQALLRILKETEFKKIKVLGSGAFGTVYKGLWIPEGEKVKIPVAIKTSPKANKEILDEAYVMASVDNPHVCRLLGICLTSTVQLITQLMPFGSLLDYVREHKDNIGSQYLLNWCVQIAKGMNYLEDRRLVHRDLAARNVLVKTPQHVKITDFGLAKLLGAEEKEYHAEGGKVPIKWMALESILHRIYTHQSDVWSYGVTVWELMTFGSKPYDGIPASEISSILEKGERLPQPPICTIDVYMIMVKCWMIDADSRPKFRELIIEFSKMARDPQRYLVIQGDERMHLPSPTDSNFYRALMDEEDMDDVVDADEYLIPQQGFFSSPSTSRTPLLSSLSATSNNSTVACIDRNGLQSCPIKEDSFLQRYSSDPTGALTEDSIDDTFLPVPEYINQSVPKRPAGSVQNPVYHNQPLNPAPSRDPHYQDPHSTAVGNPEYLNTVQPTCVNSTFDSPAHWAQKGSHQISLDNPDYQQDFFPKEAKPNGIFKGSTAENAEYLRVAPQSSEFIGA
Outline: as §2

CLK4 = CLK4 (Homo sapiens (Human), UniProt Q9HAZ1); experiment: Inhibition of CLK4 kinase activity evaluated at Nanosyn (ADP-Glo); format: biochemical; conditions: ADP-Glo luminescence
Outline: as §1

CLK2 = CLK2 (Homo sapiens (Human), UniProt P49760); experiment: Inhibition of CLK2 kinase activity evaluated at Nanosyn (ADP-Glo); format: biochemical; conditions: ADP-Glo luminescence
Outline: as §1

Compound: CCOc1nn(CCO)c2c1/C=C/c1nn(C3CCCCO3)c3cc(F)c(cc13)-c1cnn(C)c1O[C@@H]1CCCN(C2)C1 (stereo partly drawn)
ring closure, isolated yield ([1]; from CCOc1nn(CCO)c(CN2CCC[C@@H](Oc3c(-c4cc5c(/C=C/B6OC(C)(C)C(C)(C)O6)nn(C6CCCCO6)c5cc4F)cnn3C)C2)c1I, 15-membered ring, CataCXium A Pd G3/K3PO4, dioxane, 112.0 mM, 90.0 °C, 2.0 h): 42%

Compound: Cn1ncc2c1OCCN1CC[C@@H](Oc3cc(Cl)ccc3C=Cc3nn(C4CCCCO4)c4ccc-2cc34)C1=O (stereo partly drawn)
ring closure, isolated yield ([1]; from Cn1ncc(-c2ccc3c(c2)c(/C=C/B2OC(C)(C)C(C)(C)O2)nn3C2CCCCO2)c1OCCN1CC[C@@H](Oc2cc(Br)ccc2I)C1=O, 17-membered ring, Pd(dppf)Cl2.CH2Cl2/K2CO3, dioxane/H2O 5:1, 19.4 mM, 90.0 °C, 2.0 h): 38%

Compound: COC(=O)[C@H]1CN(C)Cc2c(c(OC(C)C)nn2CCO[Si](C)(C)C(C)(C)C)/C=C/c2nn(C3CCCCO3)c3ccc(cc23)-c2cnn(C)c2O1 (stereo partly drawn)
ring closure, isolated yield ([1]; from C=Cc1nn(C2CCCCO2)c2ccc(-c3cnn(C)c3O[C@H](CN(C)Cc3c(I)c(OC(C)C)nn3CCO[Si](C)(C)C(C)(C)C)C(=O)OC)cc12, 15-membered ring, Pd(OAc)2/TBAC/TEA, DMF, 11.6 mM, 100.0 °C, 2.0 h): 47%

Compound: CCOc1nn(CCO[Si](C)(C)C(C)(C)C)c2c1C=Cc1nn(C3CCCCO3)c3ccc(cc13)-c1cnn(C)c1O[C@H](CC)CN(C)C2 (stereo partly drawn)
ring closure, crude yield [2]: 62%

Compound: CCOc1nn(CCO[Si](C)(C)C(C)(C)C)c2c1/C=C/c1nn(C3CCCCO3)c3cc(F)c(cc13)-c1c(C)nn(C)c1O[C@@H](C)CN(C(C)C)C2 (stereo partly drawn)
ring closure, isolated yield ([1]; from C=Cc1nn(C2CCCCO2)c2cc(F)c(-c3c(C)nn(C)c3O[C@@H](C)CN(Cc3c(I)c(OCC)nn3CCO[Si](C)(C)C(C)(C)C)C(C)C)cc12, 15-membered ring, Pd(OAc)2/TBAC/NaHCO3, DMF, 96.7 mM, 140.0 °C, 1.0 h): 84%

Compound: Cn1ncc2c1OCCN1CC[C@@H](Oc3ccccc3/C=C/c3nn(C4CCCCO4)c4ccc-2cc34)C1=O (stereo partly drawn)
ring closure, isolated yield ([1]; from Cn1ncc(-c2ccc3c(c2)c(/C=C/B2OC(C)(C)C(C)(C)O2)nn3C2CCCCO2)c1OCCN1CC[C@@H](Oc2ccccc2I)C1=O, 17-membered ring, XPhos Pd G4/K3PO4, DMA, 25.0 mM, 80.0 °C, 2.0 h): 36%

Compound: Cc1c2c(nn1C)C=Cc1nn(C3CCCCO3)c3ccc(cc13)-c1cnn(C)c1O[C@@H](C)CN(C)C2 (stereo partly drawn)
ring closure, isolated yield ([1]; from Cc1c(CN(C)C[C@H](C)Oc2c(-c3ccc4c(c3)c(/C=C/B3OC(C)(C)C(C)(C)O3)nn4C3CCCCO3)cnn2C)c(I)nn1C, 15-membered ring, BrettPhos Pd G4/Na2CO3 aq, dioxane/H2O, 24.8 mM, 80.0 °C, 2.0 h): 58%

Compound: Cc1nn(C)c2c1C=Cc1nn(C3CCCCO3)c3ccc(cc13)-c1cnn(C)c1OCCOC2 (stereo not drawn)
ring closure, isolated yield ([1]; from Cc1nn(C)c(COCCOc2c(-c3ccc4c(c3)c(/C=C/B3OC(C)(C)C(C)(C)O3)nn4C3CCCCO3)cnn2C)c1I, 15-membered ring, Pd XPhos G4/K3PO4, DMA/H2O, 55.3 mM, 90.0 °C, 3.0 h): 14.2%

Compound: Cc1n[nH]c2c1/C=C/c1nn(C3CCCCO3)c3ccc(cc13)-c1cnn(C)c1CN(C(=O)OC(C)(C)C)CCO2 (stereo not drawn)
ring closure, isolated yield ([1]; from tert-butyl N-[2-[(4-iodo-3-methyl-1H-pyrazol-5-yl)oxy]ethyl]-N-[[2-methyl-4-[1-tetrahydropyran-2-yl-3-[(E)-2-(4,4,5,5-tetramethyl-1,3,2-dioxaborolan-2-yl)vinyl]indazol-5-yl]pyrazol-3-yl]methylicarbamate, 15-membered ring): 54%

Compound: CCOC(=O)c1nn(C)c2c1-c1ccc3c(c1)c(nn3C1CCCCO1)/C=C/c1c(OCC)nn(CCO[Si](C)(C)C(C)(C)C)c1CN(CC)C[C@H](C)O2 (stereo partly drawn)
ring closure, isolated yield ([1]; from ethyl 5-[(1S)-2-[[2-[2-[tert-butyl(dimethyl)silyl]oxyethyl]-5-ethoxy-4-iodo-pyrazol-3-yl]methyl-ethyl-amino]-1-methyl-ethoxy]-1-methyl-4-(1-tetrahydropyran-2-yl-3-vinyl-indazol-5-yl) pyrazole-3-carboxylate, 15-membered ring, Pd(OAc)2/TBAC/NaHCO3, DMF, 67.4 mM, 120.0 °C): 77%

Compound: 2-[(17E)-5,15-dimethyl-21-tetrahydropyran-2-yl-7,10-dioxa-4,5,13,14,20,21-hexazapentacyclo[17.5.2.0^2,6.0^12,160.0^22,26]hexacosa-1(25),2(6),3,12(16),14,17,19,22(26),23-nonaen-13-yl]acetic acid
ring closure, yield after HPLC [3]: 30%

IC50 (CLK1): 770 pM | IC50 (EGFR WT): 410 pM | IC50 (EGFR L858R mutant): 220 pM | IC50 (EGFR Δ746-750 mutant): 80 pM | IC50 (CLK3): 42000 pM | IC50 (EGFR L858R/T790M mutant): 130 pM | IC50 (EGFR (D770_N771insNPG)): 1390 pM | IC50 (ALK): 900 pM | IC50 [4]: 110 pM | IC50 [5]: 550 pM | IC50 (CLK4): 1490 pM | IC50 (CLK2): 450 pM
Compound: CCN1Cc2c(c(OC(C)C)nn2CC(N)=O)/C=C/c2n[nH]c3ccc(cc23)-c2cnn(C)c2O[C@@H](C)C1 [Example 232, 2-{(10S,17E)-12-ethyl-8,10-dimethyl-16-[(propan-2-yl)oxy]-2,8,10,11,12,13-hexahydro-14H-3,5-ethenotripyrazolo[3,4-f:3′,4′-j:4″,3″-n][1,4]oxazacyclopentadecin-14-yl}acetamide]

IC50 (CLK1): 280 pM | IC50 (EGFR WT): 29600 pM | IC50 (EGFR L858R mutant): 8200 pM | IC50 (EGFR Δ746-750 mutant): 7330 pM | IC50 (CLK3): 215000 pM | IC50 (EGFR L858R/T790M mutant): 850 pM | IC50 (EGFR (D770_N771insNPG)): 52000 pM | IC50 (ALK): 1130 pM | IC50 [4]: 860 pM | IC50 [5]: 4720 pM | IC50 (CLK4): 630 pM | IC50 (CLK2): 60 pM
Compound: C[C@H]1CN(C)Cc2c(c(OCC#N)nn2C)/C=C/c2n[nH]c3ccc(cc23)-c2cnn(C)c2O1 [Example 163, {[(10S,17E)-8,10,12,14-tetramethyl-2,10,11,12,13,14-hexahydro-8H-3,5-ethenotripyrazolo[3,4-f:3′,4′-j:4″,3″-n][1,4]oxazacyclopentadecin-16-yl]oxy}acetonitrile]

Compound: Cc1nn(C)c2c1/C=C/c1nn(C3CCCCO3)c3ccc(cc13)-c1cnn(C)c1CN(C)CC(C)O2 (stereo not drawn)
ring closure, isolated yield ([1]; from Cc1nn(C)c(OC(C)CN(C)Cc2c(-c3ccc4c(c3)c(/C=C/B3OC(C)(C)C(C)(C)O3)nn4C3CCCCO3)cnn2C)c1I, 15-membered ring, XPhos Pd G4/K3PO4, DMA, 66.5 mM, 80.0 °C, 2.0 h): 24%
